Structures are written as SMILES.

This is an account of results in BindingDB's records for patent US20240033370 (Bolt Biotherapeutics, 2024).

The assay addresses T1, Toll-like receptor 7 (Homo sapiens, UniProt Q9NYK1).
T1 sequence (Q9NYK1 whole entry): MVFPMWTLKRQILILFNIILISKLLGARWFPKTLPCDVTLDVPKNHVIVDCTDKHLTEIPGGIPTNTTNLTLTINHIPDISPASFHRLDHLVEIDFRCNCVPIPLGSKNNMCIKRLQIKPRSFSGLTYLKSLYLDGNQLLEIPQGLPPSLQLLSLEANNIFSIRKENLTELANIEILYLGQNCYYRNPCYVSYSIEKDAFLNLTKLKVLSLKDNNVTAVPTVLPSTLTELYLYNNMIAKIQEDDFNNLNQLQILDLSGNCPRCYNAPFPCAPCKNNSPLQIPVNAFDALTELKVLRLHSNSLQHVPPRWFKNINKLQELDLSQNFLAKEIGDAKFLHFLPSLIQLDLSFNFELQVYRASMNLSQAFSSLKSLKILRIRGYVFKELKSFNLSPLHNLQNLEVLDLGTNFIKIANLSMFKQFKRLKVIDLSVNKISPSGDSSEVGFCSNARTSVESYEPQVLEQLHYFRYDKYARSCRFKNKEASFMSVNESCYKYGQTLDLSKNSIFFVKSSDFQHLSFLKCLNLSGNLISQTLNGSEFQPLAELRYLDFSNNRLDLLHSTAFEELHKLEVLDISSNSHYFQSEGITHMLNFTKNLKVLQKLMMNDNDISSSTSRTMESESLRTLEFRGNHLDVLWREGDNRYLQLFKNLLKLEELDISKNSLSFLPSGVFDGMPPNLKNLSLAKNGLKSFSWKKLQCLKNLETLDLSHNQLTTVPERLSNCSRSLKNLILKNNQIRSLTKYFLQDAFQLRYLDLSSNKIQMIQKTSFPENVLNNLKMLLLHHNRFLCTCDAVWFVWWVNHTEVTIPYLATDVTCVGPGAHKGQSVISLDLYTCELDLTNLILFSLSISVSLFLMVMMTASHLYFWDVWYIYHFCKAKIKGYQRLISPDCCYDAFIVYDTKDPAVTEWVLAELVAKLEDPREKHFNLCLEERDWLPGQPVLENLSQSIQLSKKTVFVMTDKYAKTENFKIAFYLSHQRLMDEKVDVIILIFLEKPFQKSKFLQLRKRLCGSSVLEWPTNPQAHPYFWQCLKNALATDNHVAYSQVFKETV
Briefly: HEK Reporter Assay. How it is done: HEK293 reporter cells expressing human TLR7 or human TLR8 were purchased from Invivogen and vendor protocols were followed for cellular propagation and experimentation. Briefly, cells were grown to 80-85% confluence at 5% CO2 in DMEM supplemented with 10% FBS, Zeocin, and Blasticidin. Cells were then seeded in 96-well flat plates at 4×10^4 cells/well with substrate containing HEK detection medium and immunostimulatory molecules. Activity was measured using a plate reader at 620-655 nm wavelength.
Background: In a reporter assay the amount or activity of a reporter protein is the signal.

What is called EC50 is the concentration at which the effect is half-maximal. Consider `CCCNC(=O)C1=Cc2ccc(-c3cnc(CN)nc3)cc2N=C(N)C1` [US20240033370, Hx No. CycBz-5], for which the EC50 was 35 nM.
